Results from paper PMC11203978, “Discovery of Di(het)arylmethane and Dibenzoxanthene Derivatives as Potential Anticancer Agents” (International Journal of Molecular Sciences, 2024).
Where a name gives a salt, the structure may show the parent alone. Read-outs that look alike come from different tables or passages of the source.

Legend:
Chang Liver = experiment: MTT cytotoxicity, normal Chang liver cells; assay type: cell-based, human; details: 48 h incubation, read-out: IC50 (µM) Normal Cell Line Chang Liver
Source text: (§1) Cells and Materials. For the experiments, we used tumor cell cultures M-HeLa clone 11 (epithelioid carcinoma of the cervix, subline HeLa, clone M-HeLa), HuTu 80, human duodenal adenocarcinoma, Hep-2, human epithelial cells, SH-SY5Y, human neuroblast-like cells, A549, human lung adenocarcinoma, PA-1, human ovarian teratocarcinoma and MCF-7, a human mammary ductal adenocarcinoma from the collection of the Institute of Cytology, Russian Academy of Sciences (St. Petersburg, Russia); human liver cells (Chang liver) were from the collection and the Research Institute of Virology of the Russian Academy of Medical Sciences (Moscow, Russia).
(§2) MTT Assay. The cytotoxic effect on cells was determined using the colorimetric method of cell proliferation—the MTT test. NADP-H-dependent cellular oxidoreductase enzymes can, under certain conditions, reflect the number of viable cells. These enzymes reduce the tetrazolium dye (MTT) 3-(4,5-dimethylthiazol-2-yl)-2,5-diphenyl-tetrazolium bromide to insoluble blue-violet formazan, which crystallizes inside the cell. The amount of formed formazan is proportional to the number of cells with active metabolism. Cells were seeded on a 96-well Nunc plate at a concentration of 5 × 10^3 cells per well in a volume of 100 μL of medium and cultured in a CO2 incubator at 37 °C until a monolayer was formed. After the nutrient medium was removed, 100 µL of the test drug solutions at the given dilutions were added to the wells, which were prepared directly in the nutrient medium with the addition of 5% DMSO to improve solubility. After 48 h of incubation of the cells with the tested compounds, the nutrient medium was removed from the plates and 100 µL of the nutrient medium without serum with MTT at a concentration of 0.5 mg/mL was added and incubated for 4 h at 37 °C. Formazan crystals were added 100 µL of DMSO to each well. Optical density was recorded at 540 nm on an Invitrologic microplate reader (Novosibirsk, Russia). The experiments for all compounds were repeated three times.
(§3) Statistical analysis. The IC50 values were calculated using the MLA–Quest Graph™ IC50 Calculator (AAT Bioquest, Inc., Sunnyvale, CA, USA), 14 February 2022. Statistical analysis was performed with the Mann–Whitney test (p < 0.05). Tabular and graphical data contain averages and standard error.

HuTu 80 = experiment: MTT cytotoxicity, HuTu 80; assay type: cell-based, human; details: for IC50: MTT, 48 h incubation, read-out: IC50 (µM) Cancer Cell Lines HuTu 80; for Selectivity index (SI) = IC50(normal)/IC50(tumoral): Chang liver vs HuTu 80
Source text: as §1, §2, §3

M-HeLa = experiment: MTT cytotoxicity, M-HeLa; assay type: cell-based, human; details: MTT, 48 h incubation, read-out: IC50 (µM) Cancer Cell Lines M-HeLa
Source text: as §1, §2, §3

SMILES | IC50 (Chang Liver; Homo sapiens, Chang liver) [µM] | IC50 (HuTu 80; Homo sapiens, HuTu80, 48 h) [µM] | melting point [°C] | IC50 (M-HeLa; Homo sapiens, M-HeLa) [µM] | IC50 (HuTu 80; Homo sapiens, HuTu80) [µM] | Selectivity index (SI) = IC50(normal)/IC50(tumoral) (HuTu 80) | IC50 (Chang Liver) [µM] | IC50 (HuTu 80) [µM] | IC50 (M-HeLa) [µM]
O=C(C[P+](c1ccccc1)(c1ccccc1)c1ccccc1)NCC(c1cc2c(cc1O)OCO2)c1cc2c(cc1O)OCO2 [Compound 7a] | > 100 | 59.7 ± 4.6 | 178 to 181 | 73.5 ± 6.2 |  |  |  |  | 
O=C(CCl)NCC1c2c(ccc3ccccc23)Oc2ccc3ccccc3c21 [Compound 3a] | > 100 | > 100 | 200 to 203 | > 100 |  |  |  |  | 
O=C(CCl)NCCC(c1c(O)c2ccccc2oc1=O)c1c(O)c2ccccc2oc1=O [Compound 5b] | 68.1 ± 5.4 |  | 134 | 65.3 ± 5.4 | 52.1 ± 4.2 |  |  |  | 
O=C(C[n+]1ccccc1)NCCC(c1cc2c(cc1O)OCO2)c1cc2c(cc1O)OCO2 [Compound 9b] | 95.4 ± 8.7 | > 100 | 159 | 97.8 ± 8.2 |  |  |  |  | 
O=C(NCC(c1cc2c(cc1O)OCO2)c1cc2c(cc1O)OCO2)c1nc2ccccc2[nH]1 [Compound 12a] |  |  | 216 to 217 |  |  |  |  |  | 
CCOC(CCNC(=O)CCl)OCC [Compound 2b] | > 100 | > 100 |  | > 100 |  |  |  |  | 
CNC(=O)c1cc(Oc2ccc(NC(=O)Nc3ccc(Cl)c(C(F)(F)F)c3)cc2)ccn1 [Sorafenib, reference compound] | 35 ± 2.7 | 5 ± 0.4 |  | 35.6 ± 2.8 |  | 7 |  |  | 
COC(CNC(=O)CCl)OC [Compound 2a] | > 100 | > 100 |  | > 100 |  |  |  |  | 
O=C(NCC1c2c(ccc3ccc(O)cc23)Oc2ccc3ccc(O)cc3c21)c1nc2ccccc2[nH]1 [Compound 11b] | 53.1 ± 4.3 | 11.5 ± 0.9 | 224 to 225 | 94.3 ± 7.9 |  |  |  |  | 
COc1cccc2c1C(=O)c1c(O)c3c(c(O)c1C2=O)C[C@@](O)(C(=O)CO)C[C@@H]3O[C@H]1C[C@H](N)[C@H](O)[C@H](C)O1 [Doxorubicin, reference compound] | 3 ± 0.1 | 3 ± 0.2 |  | 3 ± 0.2 |  | 1 |  |  | 
O=C(CCl)NCCC1c2c(ccc3ccccc23)Oc2ccc3ccccc3c21 [Compound 3c] | > 100 | 29.3 ± 2.1 | 147 to 149 | 49.6 ± 3.9 |  |  |  |  | 
C[P+](CC(=O)NCCCC1c2c(ccc3ccccc23)Oc2ccc3ccccc3c21)(c1ccccc1)c1ccccc1 [Compound 6d] | 56.2 ± 4.7 | 18.5 ± 1.5 | 199 to 200 | 53.2 ± 4.6 |  | 3 |  |  | 
C[P+](CC(=O)NCCC1c2c(ccc3ccccc23)Oc2ccc3ccccc3c21)(c1ccccc1)c1ccccc1 (as salt: salt) [Compound 6b] |  |  | 161 to 162 |  |  |  |  |  | 
O=C(CCl)NCC1c2c(ccc3ccc(O)cc23)Oc2ccc3ccc(O)cc3c21 [Compound 3b] | 78.2 ± 6.8 | 53.9 ± 4.3 | > 250 | 96.4 ± 8.4 |  |  |  |  | 
O=C(NCC1c2c(ccc3ccccc23)Oc2ccc3ccccc3c21)c1nc2ccccc2[nH]1 [Compound 11a] | > 100 | > 100 | 216 | > 100 |  |  |  |  | 
COC(CNC(=O)c1nc2ccccc2[nH]1)OC [Compound 10a] |  |  |  |  |  |  | > 100 | > 100 | > 100
O=C(CCl)NCC(c1cc2c(cc1O)OCO2)c1cc2c(cc1O)OCO2 [Compound 4a] | > 100 | > 100 | 180 to 182 | > 100 |  |  |  |  | 
O=C(CCl)NCCC(c1cc2c(cc1O)OCO2)c1cc2c(cc1O)OCO2 [Compound 4b] | > 100 | 26.2 ± 1.7 | 166 to 168 | 84.6 ± 7.5 |  |  |  |  | 
O=C(NCC(c1c(O)c2ccccc2oc1=O)c1c(O)c2ccccc2oc1=O)c1nc2ccccc2[nH]1 |  |  | 263 to 265 |  |  |  |  |  | 
Cc1cc(O)c(C(CCNC(=O)c2nc3ccccc3[nH]2)c2c(O)cc(C)oc2=O)c(=O)o1 [Compound 12c] |  |  | 189 to 191 |  |  |  |  |  | 
O=C(CCl)NCCCC(c1cc2c(cc1O)OCO2)c1cc2c(cc1O)OCO2 [Compound 4c] | > 100 | > 100 | 189 to 191 | > 100 |  |  |  |  | 
O=C(CCl)NCCC1c2c(ccc3ccc(O)cc23)Oc2ccc3ccc(O)cc3c21 [Compound 3d] | 54.8 ± 4.4 | 18.1 ± 1.4 | 137 to 139 | 38.4 ± 2.7 |  | 3 |  |  | 
O=C(CCl)NCC(c1c(O)c2ccccc2oc1=O)c1c(O)c2ccccc2oc1=O |  |  | 187 to 188 |  |  |  |  |  | 
O=C(C[n+]1ccccc1)NCC(c1cc2c(cc1O)OCO2)c1cc2c(cc1O)OCO2 [Compound 9a] | > 100 | > 100 | 178 to 180 | > 100 |  |  |  |  | 
O=C(C[P+](c1ccccc1)(c1ccccc1)c1ccccc1)NCCCC1c2c(ccc3ccccc23)Oc2ccc3ccccc3c21 [Compound 6c] | 33.4 ± 2.8 | 7.3 ± 0.6 | 204 to 205 | 26.6 ± 1.9 |  | 4.6 |  |  | 
O=C(C[n+]1ccccc1)NCCC1c2c(ccc3ccccc23)Oc2ccc3ccccc3c21.[Cl-] [Compound 8] | 100 ± 9.2 | 58.4 ± 4.6 | 156 | 85.2 ± 7.4 |  |  |  |  | 
O=C(C[P+](c1ccccc1)(c1ccccc1)c1ccccc1)NCCC(c1cc2c(cc1O)OCO2)c1cc2c(cc1O)OCO2 [Compound 7b] | > 100 | 55.4 ± 4.5 | > 250 | 65.8 ± 5.8 |  |  |  |  | 
O=C(CCl)NCCCC1c2c(ccc3ccc(O)cc23)Oc2ccc3ccc(O)cc3c21 [Compound 3f] |  |  | 180 |  |  |  |  |  | 
C[P+](CC(=O)NCCC1c2c(ccc3ccccc23)Oc2ccc3ccccc3c21)(c1ccccc1)c1ccccc1 [Compound 6b] | > 100 | 64.3 ± 5.2 |  | 28.4 ± 1.8 |  |  |  |  | 
O=C(CCl)NCCCC1c2c(ccc3ccccc23)Oc2ccc3ccccc3c21 [Compound 3e] | 73.3 ± 6.4 | > 100 | 164 to 165 | 56.6 ± 4.4 |  |  |  |  | 
